Assay results published in PubChem BioAssay (NCI).
“And” between values parts separate entries of the source, which are not always exact repeats. Equal values may be shown once.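 1) Cells in 96-well plates. 2) Compound, 48 h, 5 concentrations. 3) Linear interpolation between surrounding doses. 4) Unreached endpoint = highest concentration. Here, GI50 denotes the concentration required for 50% inhibition of growth. TGI marks complete inhibition of growth.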

Key:
Test in all cases: NCI tumour cell line growth inhibition, 48 h
[1] = test system: CAKI-1 renal
[2] = test system: CCRF-CEM leukemia
[3] = test system: HL-60(TB) leukemia
[4] = test system: OVCAR-8 ovarian
[5] = test system: HT29 colon
[6] = test system: SK-MEL-5 melanoma
[7] = test system: HOP-62 NSCLC
[8] = test system: SW-620 colon
[9] = test system: SNB-75 CNS
[10] = test system: OVCAR-3 ovarian
[11] = test system: SF-539 CNS
[12] = test system: NCI-H226 lung
[13] = test system: RPMI-8226 leukemia

Compound	GI50 [1]	TGI [1]	GI50 [2]	TGI [2]	GI50 [3]	TGI [3]	GI50 [4]	TGI [4]	TGI [5]	TGI [6]	TGI [7]	TGI [8]	TGI [9]	TGI [10]	TGI [11]	TGI [12]	TGI [13]
CN(C)c1ccc(/C=C/c2sc3ccc4ccccc4c3[n+]2C)cc1	211 nM	0.627 µM	330 nM	> 100 µM	330 nM	1.18 µM	285 nM	1.67 µM	–	–	–	–	–	–	–	–	–
CC(=O)Oc1ccn2nc(C)c(Br)c2c1Br	–	21.7 µM	–	47.1 µM	–	> 66.5 µM	–	> 83.7 µM	44.6 µM	31.7 µM	> 87 µM	> 73.6 µM	> 56.2 µM	33.4 µM	45.7 µM	> 60.2 µM	–
O=c1ccc2ccccc2o1	–	–	–	> 100 µM	–	> 100 µM	–	> 100 µM	> 100 µM	–	> 100 µM	> 100 µM	> 100 µM	> 100 µM	> 100 µM	> 100 µM	> 100 µM
Cc1cc2c(c3oc(C(O)(CO)C4CO4)cc(=O)c13)C(=O)c1c(O)cccc1C2=O (stereo not given)	–	0.0036 µM	–	0.000111 µM	–	0.00397 µM	–	–	–	–	0.00989 µM and 0.00353 µM	–	0.00395 µM and 0.000596 µM	–	0.000212 µM	0.00209 µM	–
C#CC(O)/C=C/CCCCCCC#CC/C=C\CC#CCCCCCC/C=C/C(O)C#C (stereo not given)	–	5.98 µM	–	0.722 µM	–	3.86 µM	–	13.1 µM	6.86 µM	3.14 µM	4.72 µM	7.3 µM	20.9 µM	7.99 µM	41.2 µM	14 µM	–
OCCCSc1ccccc1SCCCO	–	–	–	> 100 µM	–	> 100 µM	–	> 100 µM	> 100 µM	> 100 µM	> 100 µM	> 100 µM	> 100 µM	> 100 µM	> 100 µM	–	–
CC(C)(C)c1cc(-c2ccc(-c3cc(C(C)(C)C)c(O)c(C(C)(C)C)c3)cc2)cc(C(C)(C)C)c1O	–	> 100 µM	–	–	–	> 100 µM	–	> 100 µM	> 100 µM	> 100 µM	> 100 µM	> 100 µM	> 100 µM	> 100 µM	> 100 µM	> 100 µM	> 100 µM
COc1cc(/C=C2\N=C(c3ccccc3)N(C3Nc4cc5c(cc4S3)NC(N3C(=O)/C(=C/c4cc(OC)c(OC)c(OC)c4)N=C3c3ccccc3)S5)C2=O)cc(OC)c1OC (stereo not given)	–	> 100 µM	–	–	–	> 100 µM	–	> 100 µM	> 100 µM	> 100 µM	> 100 µM	> 100 µM	> 100 µM	> 100 µM	> 100 µM	> 100 µM	95.1 µM
Cc1nc2c(nc1C)-c1c(c3c(n1Cc1ccccc1)C(=O)CCC3)C(=O)C2=O	–	5.32 µM	–	> 100 µM	–	97.7 µM	–	> 100 µM	23.9 µM	24.6 µM	> 100 µM	–	6.56 µM	–	–	48.4 µM	–
O=C1CC(Br)c2c(Cl)sc(Cl)c21 (stereo not given)	–	9.79 µM	–	2.15 µM	–	6.9 µM	–	10.4 µM	41.7 µM	41.9 µM	19.1 µM	5.43 µM	30.5 µM	6.32 µM	> 100 µM	–	6.45 µM
